Patent US10118926B2, “Tricyclic quinoline and quinoxaline derivatives” (AbbVie Deutschland GmbH & Co. KG, priority 2012, dated 2018)
Counter-ions that a name gives are not always drawn.

Target: T1, 5-HT2C receptor (Homo sapiens, UniProt P28335)
T1 construct: β-galactosidase enzyme-complementation fragment (ProLink-type donor); host or cells: U2OS
Experiment: Functional activity: beta-arrestin2 recruitment to the 5-HT2C receptor in U2OS_HTR2C_β-Arrestin cells (DiscoverX)
Format: cell-based
Conditions: for % efficacy / Emax: relative efficacy: response as percentage of response to 10 μM 5-HT or maximal effect induced by 5-HT (defined as 100%); for EC50: U2OS_HTR2C_β-Arrestin cells, 1.5 h incubation, chemiluminescent β-galactosidase complementation readout, read-out: Potency (EC50) in functional assay
Description: The functional activity of compounds of formula I was assayed by incubation with U2OS_HTR2C_β-Arrestin cells (DiscoverX, 93-0289C3) to induce beta-arrestin2 recruitment to the 5-HT2C receptor. The agonist-induced recruitment and proximity of the receptor and beta-arrestin2 leads to complementation and formation of active β-galactosidase. The enzyme complementation results in enzyme activity, which is measured following the termination of the agonist incubation using DiscoveRx's detection reagent, which contains a chemiluminescent substrate which produces a high intensity signal. Cells were plated and a medium-change to a 1% serum containing medium was performed 24 h later. The next day, test compounds were added and incubated for 1.5 h before addition of detection reagent.
The response produced was measured and compared with the response produced by 10 [mu]M 5-HT or the maximal effect induced by 5-HT (defined as 100%) to which it was expressed as a percentage response (relative efficacy). Dose response curves were constructed using Graphpad Prism (Graph Software Inc.) or using in house adapted software using a 4 parameter dose response model with variable slope (fit=(Bottom+(Top−Bottom)/(1+10^((Log EC50−x)*HillSlope))res=(y−fit)). Results are compiled in the table below.

T1 sequence (P28335 33-458): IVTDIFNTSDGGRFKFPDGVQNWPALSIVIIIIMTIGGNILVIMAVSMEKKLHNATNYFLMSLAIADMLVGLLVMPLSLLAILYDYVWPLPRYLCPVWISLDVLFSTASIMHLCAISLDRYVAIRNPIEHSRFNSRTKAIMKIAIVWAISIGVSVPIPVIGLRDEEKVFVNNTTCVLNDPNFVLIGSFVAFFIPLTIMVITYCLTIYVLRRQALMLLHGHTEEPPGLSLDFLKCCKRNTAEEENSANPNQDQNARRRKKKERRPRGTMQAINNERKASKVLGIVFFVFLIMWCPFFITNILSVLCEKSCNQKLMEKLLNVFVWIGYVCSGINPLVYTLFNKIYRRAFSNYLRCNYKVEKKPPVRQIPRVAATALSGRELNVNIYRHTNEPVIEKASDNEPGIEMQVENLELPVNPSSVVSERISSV
T1 sequence (P32121 whole entry partner, the tested form may be a part): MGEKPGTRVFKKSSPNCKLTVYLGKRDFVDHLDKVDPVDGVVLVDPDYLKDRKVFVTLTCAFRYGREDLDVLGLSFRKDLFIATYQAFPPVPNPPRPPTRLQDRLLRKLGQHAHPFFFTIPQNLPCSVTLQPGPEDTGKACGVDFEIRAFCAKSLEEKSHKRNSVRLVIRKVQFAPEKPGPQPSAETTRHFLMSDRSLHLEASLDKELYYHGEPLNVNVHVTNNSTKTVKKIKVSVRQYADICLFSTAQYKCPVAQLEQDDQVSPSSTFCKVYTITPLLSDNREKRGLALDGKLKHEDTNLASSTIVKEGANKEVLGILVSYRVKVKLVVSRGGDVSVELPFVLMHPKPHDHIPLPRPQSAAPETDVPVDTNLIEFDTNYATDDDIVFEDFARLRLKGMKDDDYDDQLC

| SMILES | % efficacy [%] | EC50 [µM] | Emax [%] |
| --- | --- | --- | --- |
| CC1(C(F)(F)F)CCN2CCNCc3cccc1c32 (single isomer, unassigned) [Example 8, 8-Methyl-8-(trifluoromethyl)-2,3,4,6,7,8-hexahydro-1H-[1,4]diazepino [6,7,1-ij]quinoline] | 40 | – | – |
| CCC1(C)CCN2CCNCc3cccc1c32.O=C(O)C(F)(F)F (single isomer, unassigned) [Example 54, One enantiomer of 8-ethyl-8-methyl-2,3,4,6,7,8-hexahydro-1H-[1,4]diazepino[6,7,1-ij]-quinoline, trifluoroacetic acid] | 24 | 0.2 to 1 | – |
| CCC1(C)CCN2CCNCc3cccc1c32.O=C(O)C(F)(F)F (single isomer, unassigned) [Example 55, Other enantiomer of 8-ethyl-8-methyl-2,3,4,6,7,8-hexahydro-1H-[1,4]diazepino[6,7,1-ij]quinoline, trifluoroacetic acid] | 26 | 0.2 to 1 | – |
| c1cc2c3c(c1)C1(CCCC1)CCN3CCNC2 [Example 6, 1,2,3,4,6,7-Hexahydrospiro[[1,4]diazepino [6,7,1-ij]quinoline-8,1′-cyclopentane]] | – | – | 63 |
| c1cc2c3c(c1)N1CCC[C@@H]1CN3CCNC2 [Example 16, (R)-5,6,7,9,9a,10,11,12-Octahydro-4H-[1,4]diazepino[1,7,6-de]pyrrolo[1,2-a]quinoxaline (2,2,2-trifluoroacetate)] | – | – | 55 |
| c1cc2c3c(c1)N1CCC[C@H]1CN3CCNC2 [Example 17, (S)-5,6,7,9,9a,10,11,12-Octahydro-4H-[1,4]diazepino[1,7,6-de]pyrrolo[1,2-a]quinoxaline (2,2,2-trifluoroacetate)] | – | – | 84 |
| CC1(C)CCN2CCNCc3cc(Cl)cc1c32 [Example 19, 10-Chloro-8,8-dimethyl-2,3,4,6,7,8-hexahydro-1H-[1,4]diazepino [6,7,1-ij]quinoline (2,2,2-trifluoroacetate)] | – | – | 25 |
| c1cc2c3c(c1)C1(CCC1)CCN3CCNC2 [Example 25, 1′,2′,3′,4′,6′,7′-Hexahydrospiro[cyclobutane-1,8′-[1,4]diazepino [6,7,1-ij]quinoline], hydrochloride] | – | – | 90 |
| Fc1ccc2c3c1C1(CCC1)CCN3CCNC2 [Example 26, 9′-Fluoro-1′,2′,3′,4′,6′,7′-hexahydrospiro[cyclobutane-1,8′-[1,4]diazepino[6,7,1-ij]quinoline], hydrochloride] | – | – | 107 |
| c1cc2c3c(c1)N(C1CCC1)CCN3CCNC2 [Example 33, 1-Cyclobutyl-2,3,5,6,7,8-hexahydro-1H-[1,4]diazepino[1,7,6-de]quinoxaline 2,2,2-trifluoroacetate] | – | 0.2 to 1 | 78 |
| c1cc2c3c(c1)N(C1COC1)CCN3CCNC2 [Example 35, 1-(Oxetan-3-yl)-2,3,5,6,7,8-hexahydro-1H-[1,4]diazepino[1,7,6-de]quinoxaline 2,2,2-trifluoroacetate] | – | 0.02 to 0.2 | 112 |
| c1cc2c3c(c1)N(CC1CC1)CCN3CCNC2 [Example 36, 1-(Cyclopropylmethyl)-2,3,5,6,7,8-hexahydro-1H-[1,4]diazepino[1,7,6-de]quinoxaline] | – | 0.2 to 1 | 31 |
| c1cc2c3c(c1)N(CC1CCCC1)CCN3CCNC2 [Example 37, 1-(Cyclopentylmethyl)-2,3,5,6,7,8-hexahydro-1H-[1,4]diazepino[1,7,6-de]quinoxaline] | – | 0.2 to 1 | 21 |
| CC1CNCc2cccc3c2N1CCN3C1CC1 (stereo not drawn) [Example 42, 1-Cyclopropyl-5-methyl-2,3,5,6,7,8-hexahydro-1H-[1,4]diazepino[1,7,6-de]quinoxaline] | – | < 0.02 | 163 |
| CC1CNCc2cccc3c2N1CC1CCCN31 (stereo not drawn) [Example 45, 7-Methyl-5,6,7,9,9^a,10,11,12-octahydro-4H-[1,4]diazepino[1,7,6-de]pyrrolo[1,2-a]quinoxaline] | – | 0.02 to 0.2 | 77 |
| CC1CNCc2ccc(F)c3c2N1CC1CCCN31 (stereo not drawn) [Example 46, 1-Fluoro-7-methyl-5,6,7,9,9^a,10,11,12-octahydro-4H-[1,4]diazepino[1,7,6-de]pyrrolo[1,2-a]quinoxaline] | – | 0.2 to 1 | 71 |
| c1cc2c3c(c1)C1(CCN3CCNC2)CC1 [Example 47, 1,2,3,4,6,7-Hexahydrospiro[[1,4]diazepino[6,7,1-ij]quinoline-8,1′-cyclopropane]] | – | 0.02 to 0.2 | 59 |
| CC1(C)CCN2CCNCc3c(F)ccc1c32 [Example 49, 11-Fluoro-8,8-Dimethyl-2,3,4,6,7,8-hexahydro-1H-[1,4]diazepino[6,7,1-ij]quinoline] | – | 0.2 to 1 | 78 |
| CC1CNCc2cccc3c2N1CCC3(C)C (stereo not drawn) [Example 51, 4,8,8-Trimethyl-2,3,4,6,7,8-hexahydro-1H-[1,4]diazepino[6,7,1-ij]quinoline 2,2,2-trifluoroacetate] | – | 0.02 to 0.2 | 102 |
| Cc1ccc2c3c1N1CCCC1CN3CCNC2 (stereo not drawn) [Example 59, 1-Methyl-5,6,7,9,9a,10,11,12-octahydro-4H-[1,4]diazepino[1,7,6-de]pyrrolo[1,2-a]quinoxaline, trifluoroacetic acid] | – | 0.02 to 0.2 | 51 |
| Cc1ccc2c3c1CNCCN3CCC21CCC1 [Example 66, 11-Methyl-1,2,3,4,6,7-hexahydrospiro[[1,4]diazepino[6,7,1-ij]quinoline-8,1′-cyclobutane], 2,2,2-trifluoroacetic acid] | – | 0.2 to 1 | 53 |
| Cc1ccc2c3c1C1(CCC1)CCN3CCNC2 [Example 67, 9-Methyl-1,2,3,4,6,7-hexahydrospiro[[1,4]diazepino[6,7,1-ij]quinoline-8,1′-cyclobutane], trifluoroacetic acid] | – | < 0.02 | 116 |

Second part, the compound after the results:

| % efficacy [%] | EC50 [µM] | Emax [%] | SMILES |
| --- | --- | --- | --- |
| 61 | – | – | CC1(C(F)(F)F)CCN2CCNCc3cccc1c32 (single isomer, unassigned) [Example 9, 8-Methyl-8-(trifluoromethyl)-2,3,4,6,7,8-hexahydro-1H-[1,4]diazepino [6,7,1-ij]quinoline] |
| 87 | – | – | CC1CN2CCNCc3cccc(c32)C1(C)C (single isomer, unassigned) [Example 27, Enantiomer of 7,8,8-trimethyl-1,2,3,4,7,8-hexahydro-6H-[1,4]diazepino[6,7,1-ij]quinoline]] |
| 55 | – | – | CC1CN2CCNCc3cccc(c32)C1(C)C (single isomer, unassigned) [Example 28, Enantiomer of 7,8,8-trimethyl-1,2,3,4,7,8-hexahydro-6H-[1,4]diazepino[6,7,1-ij]quinoline]] |
| – | – | 71 | CC1(C)CCN2CCNCc3cccc1c32 [Example 1, 8,8-Dimethyl-2,3,4,6,7,8-hexahydro-1H-[1,4]diazepino[6,7,1-ij]quinoline] |
| – | – | 69 | CC1(C)CCN2CCNCc3ccc(F)c1c32 [Example 22, 9-Fluoro-8,8-dimethyl-2,3,4,6,7,8-hexahydro-1H-[1,4]diazepino[6,7,1-ij]quinoline] |
| – | 0.02 to 0.2 | 131 | c1cc2c3c(c1)N(C1CC1)CCN3CCNC2 [Example 40, 1-Cyclopropyl-2,3,5,6,7,8-hexahydro-1H-[1,4]diazepino[1,7,6-de]quinoxaline] |
| – | 0.2 to 1 | 75 | c1cc2c3c(c1)N(C1CCCC1)CCN3CCNC2 [Example 41, 1-Cyclopentyl-2,3,5,6,7,8-hexahydro-1H-[1,4]diazepino[1,7,6-de]quinoxaline] |
| – | 0.2 to 1 | 59 | CC1CNCc2cccc3c2N1CCN3C1CCCC1 (stereo not drawn) [Example 43, 1-Cyclopentyl-5-methyl-2,3,5,6,7,8-hexahydro-1H-[1,4]diazepino[1,7,6-de]quinoxaline] |
| – | 0.02 to 0.2 | 55 | c1cc2c3c(c1)N1CCCCCC1CN3CCNC2 (stereo not drawn) [Example 44, 5,6,7,9,9a,10,11,12,13,14-decahydro-4H-azepino[1,2-a][1,4]diazepino[1,7,6-de]quinoxaline] |
| – | 0.02 to 0.2 | 105 | CC1CNCc2cccc3c2N1CCC31CC1 (stereo not drawn) [Example 48, 4-Methyl-1,2,3,4,6,7-hexahydrospiro[[1,4]diazepino[6,7,1-ij]quinoline-8,1′-cyclopropane]] |
| – | < 0.02 | 124 | CC1CNCc2cccc3c2N1CCC31CCC1 (stereo not drawn) [Example 56, 4-Methyl-1,2,3,4,6,7-hexahydrospiro[[1,4]diazepino[6,7,1-ij]quinoline-8,1′-cyclobutane]] |
| – | 0.2 to 1 | 35 | Fc1ccc2c3c1N1CCCC1CN3CCNC2 (stereo not drawn) [Example 57, 1-Fluoro-5,6,7,9,9a,10,11,12-octahydro-4H-[1,4]diazepino[1,7,6-de]pyrrolo[1,2-a]quinoxaline, trifluoroacetic acid] |
| – | 0.02 to 0.2 | 76 | c1cc2c3c(c1)N1CC4CC4C1CN3CCNC2 (stereo not drawn) [Example 68, 4,5,6,7,9,9a,9b,10,10a,11-Decahydrocyclopropa[3,4]pyrrolo[1,2-a][1,4]diazepino[1,7,6-de]quinoxaline] |
| – | 0.2 to 1 | 54 | CCN1CCN2CCNCc3cccc1c32 [Example 69, 1-Ethyl-2,3,5,6,7,8-hexahydro-1H-[1,4]diazepino[1,7,6-de]quinoxaline] |
